Assay results taken from the kinase profiling compilation of Christmann-Franck et al. (2016).

Key:
Test in all cases: KINOMEscan competition binding
Conditions in all cases: compound 10.0 µM
MLTK (human) = MLTK (human) (UniProt Q9NYL2)
[1] = target: JAK3 JH1 catalytic (human) (UniProt P52333)
AKT1 (human) = AKT1 (human) (UniProt P31749)
PIM3 (human) = PIM3 (human) (UniProt Q86V86)
TGFBR1 (human) = TGFBR1 (human) (UniProt P36897)
MAP4K3 (human) = MAP4K3 (human) (UniProt Q8IVH8)
TAOK3 (human) = TAOK3 (human) (UniProt Q9H2K8)
CAMK1G (human) = CAMK1G (human) (UniProt Q96NX5)
EPHB6 (human) = EPHB6 (human) (UniProt O15197)
DDR2 (human) = DDR2 (human) (UniProt Q16832)
Sequence of DDR2 (human) (Q16832 whole entry, looked up): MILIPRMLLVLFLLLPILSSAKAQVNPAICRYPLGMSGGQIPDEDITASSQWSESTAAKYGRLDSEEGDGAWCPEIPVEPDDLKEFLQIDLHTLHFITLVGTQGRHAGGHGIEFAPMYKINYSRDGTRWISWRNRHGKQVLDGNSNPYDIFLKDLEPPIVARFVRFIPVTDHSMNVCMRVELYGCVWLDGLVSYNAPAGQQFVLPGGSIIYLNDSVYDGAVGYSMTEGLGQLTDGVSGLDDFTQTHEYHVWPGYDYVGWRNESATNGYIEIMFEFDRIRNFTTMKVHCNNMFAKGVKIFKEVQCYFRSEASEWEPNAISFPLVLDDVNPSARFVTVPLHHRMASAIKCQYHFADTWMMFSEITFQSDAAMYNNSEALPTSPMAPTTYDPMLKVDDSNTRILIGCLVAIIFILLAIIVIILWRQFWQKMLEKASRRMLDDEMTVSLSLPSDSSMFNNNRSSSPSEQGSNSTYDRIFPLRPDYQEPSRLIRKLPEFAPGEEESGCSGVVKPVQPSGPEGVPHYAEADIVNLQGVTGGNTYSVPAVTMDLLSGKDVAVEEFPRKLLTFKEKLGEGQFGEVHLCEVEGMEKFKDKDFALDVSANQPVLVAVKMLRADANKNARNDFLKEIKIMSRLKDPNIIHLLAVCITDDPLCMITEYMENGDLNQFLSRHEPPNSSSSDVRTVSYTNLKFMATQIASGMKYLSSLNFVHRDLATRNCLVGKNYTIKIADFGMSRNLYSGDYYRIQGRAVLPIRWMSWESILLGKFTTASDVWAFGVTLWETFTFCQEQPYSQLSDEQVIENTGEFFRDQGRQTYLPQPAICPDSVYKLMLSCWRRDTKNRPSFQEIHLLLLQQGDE

ITK (human) = ITK (human) (UniProt Q08881)
MAP4K5 (human) = MAP4K5 (human) (UniProt Q9Y4K4)
MAP2K2 (human) = MAP2K2 (human) (UniProt P36507)
STK10 (human) = STK10 (human) (UniProt O94804)
[2] = test system: EGFR (human), P00533 [752-759 del]
[3] = target: JAK2 JH1 catalytic (human) (UniProt O60674)
IKBKE (human) = IKBKE (human) (UniProt Q14164)
MAST1 (human) = MAST1 (human) (UniProt Q9Y2H9)
LIMK2 (human) = LIMK2 (human) (UniProt P53671)
Sequence of LIMK2 (human) (P53671 whole entry, looked up): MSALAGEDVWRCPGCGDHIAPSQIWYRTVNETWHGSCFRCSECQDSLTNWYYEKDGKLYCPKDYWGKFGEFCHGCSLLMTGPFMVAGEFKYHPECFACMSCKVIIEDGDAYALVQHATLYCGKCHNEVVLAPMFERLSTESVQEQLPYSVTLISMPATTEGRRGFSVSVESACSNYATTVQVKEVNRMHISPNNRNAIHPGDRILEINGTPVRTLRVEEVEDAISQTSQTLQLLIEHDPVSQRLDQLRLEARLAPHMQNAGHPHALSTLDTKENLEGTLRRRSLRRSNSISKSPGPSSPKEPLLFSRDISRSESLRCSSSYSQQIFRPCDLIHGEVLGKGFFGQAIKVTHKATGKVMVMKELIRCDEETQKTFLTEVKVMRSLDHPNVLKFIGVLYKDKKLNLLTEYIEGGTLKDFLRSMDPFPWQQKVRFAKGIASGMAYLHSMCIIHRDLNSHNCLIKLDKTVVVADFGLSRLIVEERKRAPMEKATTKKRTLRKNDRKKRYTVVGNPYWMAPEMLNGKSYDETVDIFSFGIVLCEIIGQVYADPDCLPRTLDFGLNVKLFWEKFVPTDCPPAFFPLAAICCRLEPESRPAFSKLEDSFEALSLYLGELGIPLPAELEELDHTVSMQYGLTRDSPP

MYLK2 (human) = MYLK2 (human) (UniProt Q9H1R3)
Sequence of MYLK2 (human) (Q9H1R3 whole entry, looked up): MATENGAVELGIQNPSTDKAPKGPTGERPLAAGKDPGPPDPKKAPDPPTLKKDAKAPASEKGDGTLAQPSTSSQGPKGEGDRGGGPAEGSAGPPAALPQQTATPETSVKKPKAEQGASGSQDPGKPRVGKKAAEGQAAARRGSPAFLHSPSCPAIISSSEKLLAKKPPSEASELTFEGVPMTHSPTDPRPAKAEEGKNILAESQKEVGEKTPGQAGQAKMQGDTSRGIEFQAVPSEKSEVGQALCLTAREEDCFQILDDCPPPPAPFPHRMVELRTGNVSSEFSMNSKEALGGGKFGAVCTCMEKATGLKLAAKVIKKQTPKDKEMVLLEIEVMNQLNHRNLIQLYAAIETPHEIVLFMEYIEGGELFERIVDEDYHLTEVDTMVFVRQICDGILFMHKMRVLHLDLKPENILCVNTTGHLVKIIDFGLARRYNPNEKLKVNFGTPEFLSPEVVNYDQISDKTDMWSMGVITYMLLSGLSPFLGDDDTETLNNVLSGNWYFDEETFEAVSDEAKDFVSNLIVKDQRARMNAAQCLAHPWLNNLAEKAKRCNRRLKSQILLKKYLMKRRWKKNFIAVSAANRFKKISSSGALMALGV

CSF1R (human) = CSF1R (human) (UniProt P07333)
EPHA3 (human) = EPHA3 (human) (UniProt P29320)
Sequence of EPHA3 (human) (P29320 whole entry, looked up): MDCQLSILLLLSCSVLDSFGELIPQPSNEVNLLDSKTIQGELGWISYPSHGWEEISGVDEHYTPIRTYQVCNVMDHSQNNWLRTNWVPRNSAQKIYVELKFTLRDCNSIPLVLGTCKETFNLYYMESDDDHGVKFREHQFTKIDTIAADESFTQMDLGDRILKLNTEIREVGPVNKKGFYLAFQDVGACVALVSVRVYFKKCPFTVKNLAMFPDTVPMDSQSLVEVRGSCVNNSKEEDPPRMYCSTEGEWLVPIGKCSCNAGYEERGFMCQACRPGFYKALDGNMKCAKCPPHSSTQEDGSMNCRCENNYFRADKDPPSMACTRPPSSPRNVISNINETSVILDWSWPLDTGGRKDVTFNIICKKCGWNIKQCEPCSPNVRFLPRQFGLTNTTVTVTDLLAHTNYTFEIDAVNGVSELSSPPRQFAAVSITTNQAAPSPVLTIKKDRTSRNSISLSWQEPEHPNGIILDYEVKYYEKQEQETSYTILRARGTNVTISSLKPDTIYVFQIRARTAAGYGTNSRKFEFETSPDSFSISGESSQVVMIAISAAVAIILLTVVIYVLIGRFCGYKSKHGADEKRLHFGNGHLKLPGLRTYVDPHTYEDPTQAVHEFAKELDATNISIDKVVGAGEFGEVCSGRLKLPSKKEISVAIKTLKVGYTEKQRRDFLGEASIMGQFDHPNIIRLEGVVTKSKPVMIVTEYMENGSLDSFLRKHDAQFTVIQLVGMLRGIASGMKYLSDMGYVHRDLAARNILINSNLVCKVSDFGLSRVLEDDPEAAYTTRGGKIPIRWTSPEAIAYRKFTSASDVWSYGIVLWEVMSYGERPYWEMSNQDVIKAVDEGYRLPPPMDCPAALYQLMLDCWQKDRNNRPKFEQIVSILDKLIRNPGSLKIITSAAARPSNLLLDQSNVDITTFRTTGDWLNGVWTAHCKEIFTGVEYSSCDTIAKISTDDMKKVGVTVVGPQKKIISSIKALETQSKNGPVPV

TRPM6 (human) = TRPM6 (human) (UniProt Q9BX84)
PRKAA2 (human) = PRKAA2 (human) (UniProt P54646)
[4] = test system: EGFR (human), P00533 [747-751 del / S ins]
PIP5K1C (human) = PIP5K1C (human) (UniProt O60331)
Sequence of PIP5K1C (human) (O60331 whole entry, looked up): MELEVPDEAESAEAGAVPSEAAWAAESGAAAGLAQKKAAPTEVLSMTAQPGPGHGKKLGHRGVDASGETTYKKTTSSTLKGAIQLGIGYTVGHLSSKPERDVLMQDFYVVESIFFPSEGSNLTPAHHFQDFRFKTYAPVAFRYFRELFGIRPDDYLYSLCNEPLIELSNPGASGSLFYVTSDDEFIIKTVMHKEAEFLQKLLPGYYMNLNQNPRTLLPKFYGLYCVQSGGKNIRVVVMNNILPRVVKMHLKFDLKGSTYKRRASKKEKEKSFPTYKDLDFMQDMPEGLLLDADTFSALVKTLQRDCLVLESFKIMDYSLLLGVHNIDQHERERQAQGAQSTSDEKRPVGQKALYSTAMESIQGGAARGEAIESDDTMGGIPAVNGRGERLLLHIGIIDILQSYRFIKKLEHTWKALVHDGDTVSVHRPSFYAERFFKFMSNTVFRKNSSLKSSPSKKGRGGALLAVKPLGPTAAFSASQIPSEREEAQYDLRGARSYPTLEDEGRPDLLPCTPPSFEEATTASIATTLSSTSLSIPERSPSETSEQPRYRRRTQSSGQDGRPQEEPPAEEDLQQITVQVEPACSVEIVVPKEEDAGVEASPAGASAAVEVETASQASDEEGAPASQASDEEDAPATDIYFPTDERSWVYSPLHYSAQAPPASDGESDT

RPS6KA4 KD1 (human) = RPS6KA4 KD1 (human) (UniProt O75676)
TXK (human) = TXK (human) (UniProt P42681)
[5] = target: JAK1 JH2 pseudokinase (human) (UniProt P23458)
FLT1 (human) = FLT1 (human) (UniProt P17948)
SRC (human) = SRC (human) (UniProt P12931)
TAOK1 (human) = TAOK1 (human) (UniProt Q7L7X3)
[6] = test system: FLT3 (human), P36888 [D835H]
PRKD1 (human) = PRKD1 (human) (UniProt Q15139)
MKNK2 (human) = MKNK2 (human) (UniProt Q9HBH9)
Sequence of MKNK2 (human) (Q9HBH9 whole entry, looked up): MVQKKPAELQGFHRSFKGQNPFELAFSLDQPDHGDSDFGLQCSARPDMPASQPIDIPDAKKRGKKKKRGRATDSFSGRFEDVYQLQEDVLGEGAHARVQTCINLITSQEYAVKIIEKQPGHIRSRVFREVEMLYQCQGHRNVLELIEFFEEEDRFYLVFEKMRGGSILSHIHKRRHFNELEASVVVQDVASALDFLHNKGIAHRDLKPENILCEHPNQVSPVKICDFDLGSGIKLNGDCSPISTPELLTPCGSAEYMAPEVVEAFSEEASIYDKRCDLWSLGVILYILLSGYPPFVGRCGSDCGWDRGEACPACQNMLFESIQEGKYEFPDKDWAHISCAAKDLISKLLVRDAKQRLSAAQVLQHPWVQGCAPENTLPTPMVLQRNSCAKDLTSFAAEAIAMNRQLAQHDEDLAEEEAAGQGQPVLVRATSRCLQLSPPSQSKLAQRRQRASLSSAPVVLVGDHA

MAPK1 (human) = MAPK1 (human) (UniProt P28482)
PRKACB (human) = PRKACB (human) (UniProt P22694)
EPHB3 (human) = EPHB3 (human) (UniProt P54753)
WEE2 (human) = WEE2 (human) (UniProt P0C1S8)
MARK3 (human) = MARK3 (human) (UniProt P27448)

Sequence of TGFBR1 (human) (P36897 whole entry, looked up): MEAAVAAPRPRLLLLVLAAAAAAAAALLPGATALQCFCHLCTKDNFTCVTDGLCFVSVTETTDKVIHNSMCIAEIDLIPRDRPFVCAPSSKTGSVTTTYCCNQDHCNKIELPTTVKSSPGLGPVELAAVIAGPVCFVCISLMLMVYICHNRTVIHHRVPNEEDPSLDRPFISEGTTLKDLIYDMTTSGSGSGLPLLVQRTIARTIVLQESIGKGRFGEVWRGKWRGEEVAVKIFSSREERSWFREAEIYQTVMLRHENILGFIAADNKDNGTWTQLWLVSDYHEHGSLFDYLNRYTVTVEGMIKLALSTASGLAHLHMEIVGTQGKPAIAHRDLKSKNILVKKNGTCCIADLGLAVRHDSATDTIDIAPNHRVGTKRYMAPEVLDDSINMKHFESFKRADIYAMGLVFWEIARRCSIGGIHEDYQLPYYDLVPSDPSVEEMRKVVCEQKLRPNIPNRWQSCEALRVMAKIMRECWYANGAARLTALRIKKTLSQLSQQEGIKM

Row | Structure (SMILES) | kinase still bound, per cent of control (MLTK (human)) | kinase still bound, per cent of control [1] | kinase still bound, per cent of control (AKT1 (human)) | kinase still bound, per cent of control (PIM3 (human)) | kinase still bound, per cent of control (TGFBR1 (human)) | kinase still bound, per cent of control (MAP4K3 (human)) | kinase still bound, per cent of control (TAOK3 (human)) | kinase still bound, per cent of control (CAMK1G (human)) | kinase still bound, per cent of control (EPHB6 (human)) | kinase still bound, per cent of control (DDR2 (human)) | kinase still bound, per cent of control (ITK (human)) | kinase still bound, per cent of control (MAP4K5 (human)) | kinase still bound, per cent of control (MAP2K2 (human)) | kinase still bound, per cent of control (STK10 (human)) | kinase still bound, per cent of control [3] | kinase still bound, per cent of control (IKBKE (human)) | kinase still bound, per cent of control (MAST1 (human)) | kinase still bound, per cent of control (LIMK2 (human)) | kinase still bound, per cent of control (MYLK2 (human)) | kinase still bound, per cent of control (CSF1R (human)) | further results
1 | O=c1cc(N2CCOCC2)oc2c(-c3cccc4c3sc3ccccc34)cccc12 | 93% | 81% | 89% | 65% | 100% | 76% | 97% | 85% | 100% | 100% | 100% | 89% | 97% | 100% | 67% | 100% | 100% | 100% | 100% | 100% | kinase still bound, per cent of control [2]: 100%; kinase still bound, per cent of control (EPHA3 (human)): 91%; kinase still bound, per cent of control (TRPM6 (human)): 100%; kinase still bound, per cent of control (PRKAA2 (human)): 100%; kinase still bound, per cent of control [4]: 100%; kinase still bound, per cent of control (PIP5K1C (human)): 61%; kinase still bound, per cent of control (RPS6KA4 KD1 (human)): 79%; kinase still bound, per cent of control (TXK (human)): 91%; kinase still bound, per cent of control [5]: 72%; kinase still bound, per cent of control (FLT1 (human)): 97%; kinase still bound, per cent of control (SRC (human)): 90%; kinase still bound, per cent of control (TAOK1 (human)): 100%; kinase still bound, per cent of control [6]: 92%; kinase still bound, per cent of control (PRKD1 (human)): 98%; kinase still bound, per cent of control (MKNK2 (human)): 87%; kinase still bound, per cent of control (MAPK1 (human)): 95%; kinase still bound, per cent of control (PRKACB (human)): 92%; kinase still bound, per cent of control (EPHB3 (human)): 100%; kinase still bound, per cent of control (WEE2 (human)): 100%; kinase still bound, per cent of control (MARK3 (human)): 99%
2 | CCN1CCN(C(=O)Cc2ccc(Nc3ncc(F)c(Nc4ccc(C(=O)Nc5ccccc5Cl)cc4)n3)cc2)CC1 | 2.9% | 3.7% | 100% | 67% | 57% | 42% | 69% | 39% | 15% | 100% | 52% | 64% | 57% | 3.4% | 76% | 100% | 100% | 30% | 66% | 6.5% | kinase still bound, per cent of control [2]: 56%; kinase still bound, per cent of control (EPHA3 (human)): 62%; kinase still bound, per cent of control (TRPM6 (human)): 96%; kinase still bound, per cent of control (PRKAA2 (human)): 39%; kinase still bound, per cent of control [4]: 47%; kinase still bound, per cent of control (PIP5K1C (human)): 77%; kinase still bound, per cent of control (RPS6KA4 KD1 (human)): 100%; kinase still bound, per cent of control (TXK (human)): 2.2%; kinase still bound, per cent of control [5]: 3%; kinase still bound, per cent of control (FLT1 (human)): 9.6%; kinase still bound, per cent of control (SRC (human)): 18%; kinase still bound, per cent of control (TAOK1 (human)): 62%; kinase still bound, per cent of control [6]: 0.6%; kinase still bound, per cent of control (PRKD1 (human)): 100%; kinase still bound, per cent of control (MKNK2 (human)): 5.6%; kinase still bound, per cent of control (MAPK1 (human)): 100%; kinase still bound, per cent of control (PRKACB (human)): 76%; kinase still bound, per cent of control (EPHB3 (human)): 78%; kinase still bound, per cent of control (WEE2 (human)): 12%; kinase still bound, per cent of control (MARK3 (human)): 80%
3 | COCC(=O)NC/C=C/c1ccc2ncnc(Nc3ccc(Oc4ccc(C)nc4)c(C)c3)c2c1 | 76% | 100% | 100% | 100% | 100% | 80% | 100% | 96% | 74% | 100% | 92% | 86% | 11% | 4.2% | 100% | 100% | 100% | 100% | 100% | 100% | kinase still bound, per cent of control (EPHA3 (human)): 97%; kinase still bound, per cent of control (TRPM6 (human)): 100%; kinase still bound, per cent of control (PRKAA2 (human)): 100%; kinase still bound, per cent of control (PIP5K1C (human)): 93%; kinase still bound, per cent of control (RPS6KA4 KD1 (human)): 97%; kinase still bound, per cent of control (TXK (human)): 84%; kinase still bound, per cent of control (FLT1 (human)): 88%; kinase still bound, per cent of control (SRC (human)): 97%; kinase still bound, per cent of control (TAOK1 (human)): 94%; kinase still bound, per cent of control (PRKD1 (human)): 85%; kinase still bound, per cent of control (MKNK2 (human)): 1.4%; kinase still bound, per cent of control (MAPK1 (human)): 100%; kinase still bound, per cent of control (PRKACB (human)): 100%; kinase still bound, per cent of control (EPHB3 (human)): 86%; kinase still bound, per cent of control (WEE2 (human)): 81%; kinase still bound, per cent of control (MARK3 (human)): 100%
